Laboratory results reported in patent publication US20130142866A1, “COMPOSITIONS AND METHODS FOR IMPROVED ORGAN TRANSPLANT PRESERVATION AND ACCEPTANCE” (NOVALIQ GMBH, priority 2010, published 2013).
Values after ≈ are worked out from the molar mass of the structure shown. “Also recorded” adds a separate entry of the source.

Tests used:
freshly isolated T-cells = assay: T-cell proliferation, anti-CD3/anti-CD28 activation, 3H-thymidine incorporation; format: cell-based
Protocol: A cell-culture system was used in which freshly isolated T-cells were polyclonally activated by anti-CD3/anti-CD28 beads. The cells were allowed to proliferate for at least 10 days in the presence or absence of different dilutions of the composition of the invention. T-cell proliferation was assessed on day 3, 5, 7 and 10 by means of 3H-thymidine incorporation. In this model, T-cell proliferation is maximal at day 3 and gradually declines at day 10.
The experiments were repeated, except that freshly isolated T-cells were stimulated with anti-CD3/antio-CD28 antibodies in the presence of the composition diluted to a concentration of 50 μM of N-octanoyl dopamine and various concentrations of ciclosporin A or tacrolimus. Similar concentrations of ciclosporin A or tacrolimus were also tested in the absence of the composition.

[1] = Compatibility with organ preservation solutions (UW, HTK); format: physicochemical; details: usual behaviour, leading to brownish-pink colour
Protocol: Two samples of the formulation of example 4 having a N-octanoyl dopamine concentration of 11.16 mg/mL were individually mixed with either University of Wisconsin solution (Viaspan, or UW) or histidine-tryptophan-ketoglutarate (HTK) solution (Custodiol) at a volume ratio of 1:4 (1 part of the inventive composition plus 4 parts of the conventional solution).

[2] = test system: Human umbilical vein endothelial cells (HUVEC) stimulated with TNF-α; assay: TNF-α-mediated inflammation in HUVEC (gene expression profiling, qPCR, Western blotting, NF-κB activation); format: cell-based
Protocol: Human umbilical vein endothelial cells (HUVEC) were stimulated with TNF-α (tumour-necrosis-factor alpha) in the absence or presence of various concentrations of the N-octanoyl dopamine formulation. Affymetrix Gene Expression Profiling, quantitative PCR, Western-blotting and NF-κB activation were performed to assess the anti-inflammatory potential of the composition of the invention. As a comparator, a surfactant-free aqueous dispersion of N-octanoyl dopamine, which is not an embodiment of the invention, was also tested.

[3] = Solubilisation of N-octanoyl dopamine by polysorbates; format: physicochemical; details: 0.5 wt.-% polysorbate 20 or polysorbate 80 solution, aqueous with cosolvent or surfactant or cyclodextrin; 0.5 wt.-% polysorbate 20 or polysorbate 80, individually; read-out: amount of N-octanoyl dopamine solubilised
Description: In one particular embodiment, the amount of amphiphilic excipient is at least about 0.05 wt.-%. According to a further embodiment, the amount is from about 0.1 wt.-% to about 30 wt.-%, or from about 0.5 wt.-% to about 20 wt.-%, respectively. […] However, if the composition is to be used as a concentrate to be added to a commercial solution for tissue and organ preservation, the concentrate itself may also comprise the amphiphilic excipient at a relatively high concentration, taking into account the dilution factor. In a further embodiment, the ratio of N-octanoyl dopamine to the amphiphilic excipient is selected in the range from about 5:1 to about 1:50.

Cardiomyocytes = assay: Cold storage injury of cardiomyocytes (ATP, LDH release, contraction rate); format: cell-based, rats
Protocol: Cardiomyocytes were freshly isolated from new born rats and cultured for 3 days. […] ATP levels and LDH release was measured after 8 hours of cold preservation and hereafter cardiomyocytes were re-warmed and the contraction rate per well and ATP regeneration were determined.

Question: With `C=CC[C@@H]1/C=C(\C)C[C@H](C)C[C@H](OC)[C@H]2O[C@@](O)(C(=O)C(=O)N3CCCC[C@H]3C(=O)O[C@H](/C(C)=C/[C@@H]3CC[C@@H](O)[C@H](OC)C3)[C@H](C)[C@@H](O)CC1=O)[C@H](C)C[C@@H]2OC` [tacrolimus, reference compound] as the compound, how does the “concentration of maximal inhibition of T-cell proliferation” value (freshly isolated T-cells; calcineurin inhibitor alone, absence of the composition) read?
Answer: 1 µM

Question: And the “ciclosporin A or tacrolimus concentration still giving complete inhibition of T-cell proliferation” value (freshly isolated T-cells; in the presence of 50 μM N-octanoyl dopamine)?
Answer: 1 nM

Question: For `CCCCCCCC(=O)NCCc1ccc(O)c(O)c1` [N-octanoyl dopamine, N-octanoyl-4-(2-aminoethyl)benzene-1,2-diol], which T-cell proliferation (freshly isolated T-cells; 25 μM N-octanoyl dopamine) is on record?
Answer: without effect

Question: What about the T-cell proliferation (freshly isolated T-cells; 50 μM N-octanoyl dopamine) of the same compound?
Answer: inhibited T-cell proliferation at day 3; also recorded: only partly inhibited T-cell proliferation at day 3 but not thereafter

Question: What about the “reduction of the amount of calcineurin inhibitor required for complete T-cell suppression” value (freshly isolated T-cells; 50 μM N-octanoyl dopamine) of the same compound?
Answer: at least 1000 fold

Question: And the T-cell proliferation (freshly isolated T-cells; 100 μM N-octanoyl dopamine)?
Answer: inhibited at day 3, day 5 and partly at day 7

Question: What about the “NFκB and AP-1 in T-cells” value (freshly isolated T-cells; downstream of early T-cell receptor signalling events) of the same compound?
Answer: inhibition

Question: And the “inhibition of T-cell proliferation after oxidation / without redox activity” value (freshly isolated T-cells; oxidation of N-octanoyl dopamine, or compounds lacking redox activity)?
Answer: abrogated

Question: What about the “oxidation of N-octanoyl dopamine when mixed with UW or HTK” value [1] of the same compound?
Answer: occurs very rapidly

Question: And the HO-1 expression [2]?
Answer: strongly upregulated

Question: And the “concentration at which HO-1 was significantly induced” value [2]?
Answer: 1 µM

Question: And the “concentration required for inhibition of VCAM-1 expression” value [2]?
Answer: 50 µM

Question: What about the solubility [3] of the same compound?
Answer: 40 mM (≈ 11.2 mg/mL)

Question: For `NCCc1ccc(O)c(O)c1` [dopamine], which “LDH-release after cold storage” value (Cardiomyocytes; 8 hours at 4° C., FIG. 2) is on record?
Answer: inhibited

Question: What about the “ATP level after cold storage” value (Cardiomyocytes; 8 hours at 4° C., compared with untreated cells, FIG. 1) of the same compound?
Answer: dose-dependent mitigation of ATP loss

Question: And the “regeneration of ATP after re-warming” value (Cardiomyocytes; after 8 hours at 4° C., compared to untreated cells)?
Answer: much faster

Question: And the “contraction rate after re-warming” value (Cardiomyocytes; after 8 hours at 4° C., treated cells)?
Answer: significantly improved rate
